Test results as given in patent US11180494B2, “Substituted amino acids as integrin inhibitors” (Pliant Therapeutics, Inc., priority 2018, dated 2021).

target: human integrin αvβ6 (Homo sapiens (Human), UniProt P06756+P18564); test: Proximity-based integrin receptor binding assay (ALPHASCREEN) for inhibitor potency; conditions: inhibition of binding of TGF-b1 LAP to human integrin αvβ6; values given in ranges
Experimental: To gauge the potency of inhibitors of binding to human integrin αvβ6, inhibitor compounds and integrin were incubated together with TGF-b1 LAP and biotinylated anti-LAP antibody plus acceptor and donor beads, following the manufacture's recommendations. The donor beads were coated with streptavidin. […] All incubations occurred at room temperatures in 50 mM Tris-HCl, pH 7.5, 0.1% BSA supplemented with 1 mM each CaCl2 and MgCl2.
The order of reagent addition was as follows:
1. Alpha-v-beta-6 integrin, test inhibitor compound, LAP, biotinylated anti-LAP antibody and acceptor beads were all added together.
2. After 2 hours, donor beads were added. After another 30 minute incubation, samples were then read.
Integrin binding was evaluated by exciting donor beads at 680 nm, and measuring the fluorescent signal produced, between 520-620 nm, using a Biotek Instruments (Winooski, Vt., USA) SynergyNeo2 multimode plate reader. […] Data analysis for IC50 determinations was carried out by nonlinear four parameter logistic regression analysis using Dotmatics ELN Software (Core Informatics Inc., Branford, Conn.).

Chain of human integrin αvβ6 (P06756 31-992): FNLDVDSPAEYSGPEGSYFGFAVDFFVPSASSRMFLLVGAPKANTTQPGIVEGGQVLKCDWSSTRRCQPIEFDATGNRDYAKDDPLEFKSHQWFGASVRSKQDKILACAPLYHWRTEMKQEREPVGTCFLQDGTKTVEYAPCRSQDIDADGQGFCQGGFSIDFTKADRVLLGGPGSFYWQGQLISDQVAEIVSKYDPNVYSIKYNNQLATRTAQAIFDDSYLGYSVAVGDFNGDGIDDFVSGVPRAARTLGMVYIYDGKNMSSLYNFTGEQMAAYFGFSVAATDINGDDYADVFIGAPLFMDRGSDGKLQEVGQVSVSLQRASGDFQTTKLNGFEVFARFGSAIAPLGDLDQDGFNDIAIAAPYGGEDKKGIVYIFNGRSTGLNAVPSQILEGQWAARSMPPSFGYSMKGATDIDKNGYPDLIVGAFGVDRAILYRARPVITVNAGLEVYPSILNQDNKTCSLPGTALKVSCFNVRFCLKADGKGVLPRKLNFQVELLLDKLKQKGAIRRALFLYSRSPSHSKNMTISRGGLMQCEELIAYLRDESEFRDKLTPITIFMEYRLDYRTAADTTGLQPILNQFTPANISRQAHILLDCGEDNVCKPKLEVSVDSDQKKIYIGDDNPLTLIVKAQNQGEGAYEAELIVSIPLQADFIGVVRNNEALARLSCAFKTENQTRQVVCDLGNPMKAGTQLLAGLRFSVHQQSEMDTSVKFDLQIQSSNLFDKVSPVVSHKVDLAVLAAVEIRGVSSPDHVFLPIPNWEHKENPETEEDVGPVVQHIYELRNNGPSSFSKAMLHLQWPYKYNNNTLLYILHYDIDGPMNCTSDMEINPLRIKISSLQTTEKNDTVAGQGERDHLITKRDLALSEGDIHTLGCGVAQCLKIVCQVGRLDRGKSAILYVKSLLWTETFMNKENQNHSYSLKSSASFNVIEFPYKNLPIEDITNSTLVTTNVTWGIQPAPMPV
Chain of human integrin αvβ6 (P18564 22-707): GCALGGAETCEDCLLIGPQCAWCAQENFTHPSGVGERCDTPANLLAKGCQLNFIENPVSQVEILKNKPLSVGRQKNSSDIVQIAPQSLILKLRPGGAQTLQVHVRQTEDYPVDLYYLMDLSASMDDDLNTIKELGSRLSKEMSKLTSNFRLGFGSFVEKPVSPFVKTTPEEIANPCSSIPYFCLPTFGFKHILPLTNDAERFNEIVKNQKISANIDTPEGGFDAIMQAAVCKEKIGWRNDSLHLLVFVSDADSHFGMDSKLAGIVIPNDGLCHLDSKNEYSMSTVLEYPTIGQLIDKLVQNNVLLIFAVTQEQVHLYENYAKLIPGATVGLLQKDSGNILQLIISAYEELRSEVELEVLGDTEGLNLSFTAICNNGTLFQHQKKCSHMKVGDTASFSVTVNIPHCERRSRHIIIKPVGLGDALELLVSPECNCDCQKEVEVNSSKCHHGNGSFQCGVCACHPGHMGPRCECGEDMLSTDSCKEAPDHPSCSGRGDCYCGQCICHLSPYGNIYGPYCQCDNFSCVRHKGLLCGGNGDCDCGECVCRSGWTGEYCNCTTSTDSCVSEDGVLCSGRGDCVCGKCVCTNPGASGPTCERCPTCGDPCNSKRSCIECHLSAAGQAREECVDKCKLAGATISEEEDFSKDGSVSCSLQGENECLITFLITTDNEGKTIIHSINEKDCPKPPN

Row | SMILES | IC50 [nM]
1 | CC(C)(C)OC(=O)N[C@@H](CCO[C@H]1C[C@@H](CCc2ccc3c(n2)NCCC3)C1)C(=O)O [Compound 18, N-(tert-butoxycarbonyl)-O-(cis-3-(2-(5,6,7,8-tetrahydro-1,8-naphthyridin-2-yl)ethyl)cyclobutyl)homoserine] | 50 to 250
2 | CN(C(=O)N[C@@H](CCO[C@H]1C[C@H](CCc2ccc3c(n2)NCCC3)C1)C(=O)O)C(C)(C)C [Compound 119, N-(tert-butyl(methyl)carbamoyl)-O-(trans-3-(2-(5,6,7,8-tetrahydro-1,8-naphthyridin-2-yl)ethyl)cyclobutyl)homoserine] | 50 to 250
3 | O=C(O)[C@H](CCO[C@H]1C[C@H](CCc2ccc3c(n2)NCCC3)C1)NC(=O)C1(Cc2cccnc2)CC1 [Compound 185, N-(1-(pyridin-3-ylmethyl)cyclopropane-1-carbonyl)-O-(trans-3-(2-(5,6,7,8-tetrahydro-1,8-naphthyridin-2-yl)ethyl)cyclobutyl)homoserine] | < 50
4 | CC(C)(C)c1ccnc(N[C@@H](CCO[C@H]2C[C@H](CCc3ccc4c(n3)NCCC4)C2)C(=O)O)n1 [Example 226, N-(4-(tert-butyl)pyrimidin-2-yl)-O-(trans-3-(2-(5,6,7,8-tetrahydro-1,8-naphthyridin-2-yl)ethyl)cyclobutyl)homoserine] | 250 to 1000
5 | O=C(O)C(CCO[C@H]1C[C@H](CCc2ccc3c(n2)NCCC3)C1)NC(=O)[C@H](CO)c1ccccc1 (stereo partly drawn) [Compound 46, N—((S)-3-hydroxy-2-phenylpropanoyl)-O-(trans-3-(2-(5,6,7,8-tetrahydro-1,8-naphthyridin-2-yl)ethyl)cyclobutyl)homoserine] | 250 to 1000
6 | Cn1ncc2c(C(=O)N[C@@H](CCO[C@H]3C[C@H](CCc4ccc5c(n4)NCCC5)C3)C(=O)O)cccc21 [Compound 38, N-(1-methyl-1H-indazole-4-carbonyl)-O-(trans-3-(2-(5,6,7,8-tetrahydro-1,8-naphthyridin-2-yl)ethyl)cyclobutyl)homoserine] | 50 to 250
7 | CC1(C(=O)N[C@@H](CCO[C@H]2C[C@H](CCc3ccc4c(n3)NCCC4)C2)C(=O)O)CCOCC1 [Compound 164, N-(4-methyltetrahydro-2H-pyran-4-carbonyl)-O-(trans-3-(2-(5,6,7,8-tetrahydro-1,8-naphthyridin-2-yl)ethyl)cyclobutyl)homoserine] | < 50
8 | Cn1ccc2cc(C(=O)N[C@@H](CCO[C@H]3C[C@H](CCc4ccc5c(n4)NCCC5)C3)C(=O)O)cnc21 [Compound 48, N-(1-methyl-1H-pyrrolo[2,3-b]pyridine-5-carbonyl)-O-(trans-3-(2-(5,6,7,8-tetrahydro-1,8-naphthyridin-2-yl)ethyl)cyclobutyl)homoserine] | 250 to 1000
9 | O=C(N[C@@H](CCO[C@H]1C[C@H](CCc2ccc3c(n2)NCCC3)C1)C(=O)O)c1ccc(Cl)c(Cl)c1 [Compound 34, N-(3,4-dichlorobenzoyl)-O-(trans-3-(2-(5,6,7,8-tetrahydro-1,8-naphthyridin-2-yl)ethyl)cyclobutyl)homoserine] | 50 to 250
10 | Cn1cc2ccc(C(=O)N[C@@H](CCO[C@H]3C[C@H](CCc4ccc5c(n4)NCCC5)C3)C(=O)O)cc2n1 [Compound 39, N-(2-methyl-2H-indazole-6-carbonyl)-O-(trans-3-(2-(5,6,7,8-tetrahydro-1,8-naphthyridin-2-yl)ethyl)cyclobutyl)homoserine] | 50 to 250
11 | CC(C)(C)C(=O)NC(CCO[C@H]1C[C@H](CCc2ccc3c(n2)NCCC3)C1)C(=O)O (stereo partly drawn) [Compound 94, N-pivaloyl-O-(trans-3-(2-(5,6,7,8-tetrahydro-1,8-naphthyridin-2-yl)ethyl)cyclobutyl)homoserine] | 50 to 250
12 | Cc1cncc(Cl)c1C(=O)N[C@@H](CCO[C@H]1C[C@@H](CCc2ccc3c(n2)NCCC3)C1)C(=O)O [Compound 199, N-(3-chloro-5-methylisonicotinoyl)-O-(cis-3-(2-(5,6,7,8-tetrahydro-1,8-naphthyridin-2-yl)ethyl)cyclobutyl)homoserine] | 50 to 250
13 | CCCCC(=O)NC(CCOC1CC(CCc2ccc3c(n2)NCCC3)C1)C(=O)O (centres unmarked) [Compound 11, N-pentanoyl-O-(3-(2-(5,6,7,8-tetrahydro-1,8-naphthyridin-2-yl)ethyl)cyclobutyl)homoserine] | 50 to 250
14 | COCC(C)(C)C(=O)NC(CCO[C@H]1C[C@H](CCc2ccc3c(n2)NCCC3)C1)C(=O)O (stereo partly drawn) [Compound 105, N-(3-methoxy-2,2-dimethylpropanoyl)-O-(trans-3-(2-(5,6,7,8-tetrahydro-1,8-naphthyridin-2-yl)ethyl)cyclobutyl)homoserine] | < 50
15 | O=C(O)C(CCO[C@H]1C[C@@H](CCc2ccc3c(n2)NCCC3)C1)NC(=O)[C@@H](CO)c1ccccc1 (stereo partly drawn) [Compound 70, N—((R)-3-hydroxy-2-phenylpropanoyl)-O-(cis-3-(2-(5,6,7,8-tetrahydro-1,8-naphthyridin-2-yl)ethyl)cyclobutyl)homoserine] | 50 to 250
16 | O=C(NC(CCO[C@H]1C[C@H](CCc2ccc3c(n2)NCCC3)C1)C(=O)O)c1ccc(C2CC2)cc1 (stereo partly drawn) [Compound 57, N-(4-cyclopropylbenzoyl)-O-(trans-3-(2-(5,6,7,8-tetrahydro-, 8-naphthyridin-2-yl)ethyl)cyclobutyl)homoserine] | 250 to 1000
17 | CS(=O)(=O)N1CC[C@H](OC(=O)N[C@@H](CCO[C@H]2C[C@H](CCc3ccc4c(n3)NCCC4)C2)C(=O)O)C1 [Compound 136, N—((((S)-1-(methylsulfonyl)pyrrolidin-3-yl)oxy)carbonyl)-O-(trans-3-(2-(5,6,7,8-tetrahydro-1,8-naphthyridin-2-yl)ethyl)cyclobutyl)homoserine] | < 50
18 | O=C(N[C@@H](CCO[C@H]1C[C@H](CCc2ccc3c(n2)NCCC3)C1)C(=O)O)c1ccc(F)cc1F [Compound 24, N-(2,4-difluorobenzoyl)-O-(trans-3-(2-(5,6,7,8-tetrahydro-1,8-naphthyridin-2-yl)ethyl)cyclobutyl)homoserine] | < 50
19 | CC(C)CC(=O)N[C@@H](CCO[C@H]1C[C@H](CCc2ccc3c(n2)NCCC3)C1)C(=O)O [Compound 123, N-(3-methylbutanoyl)-O-(trans-3-(2-(5,6,7,8-tetrahydro-1,8-naphthyridin-2-yl)ethyl)cyclobutyl)homoserine] | < 50
20 | O=C(N[C@@H](CCO[C@H]1C[C@@H](CCc2ccc3c(n2)NCCC3)C1)C(=O)O)c1cccc(-c2cncs2)c1 [Compound 69, O-(cis-3-(2-(5,6,7,8-tetrahydro-1,8-naphthyridin-2-yl)ethyl)cyclobutyl)-N-(3-(thiazol-5-yl)benzoyl)homoserine] | 250 to 1000
21 | CC(C)(Cc1ccccc1)C(=O)NC(CCO[C@H]1C[C@H](CCc2ccc3c(n2)NCCC3)C1)C(=O)O (stereo partly drawn) [Compound 100, N-(2,2-dimethyl-3-phenylpropanoyl)-O-(trans-3-(2-(5,6,7,8-tetrahydro-1,8-naphthyridin-2-yl)ethyl)cyclobutyl)homoserine] | 50 to 250
22 | Cn1cc2cc(C(=O)N[C@@H](CCO[C@H]3C[C@H](CCc4ccc5c(n4)NCCC5)C3)C(=O)O)ccc2n1 [Compound 40, N-(2-methyl-2H-indazole-5-carbonyl)-O-(trans-3-(2-(5,6,7,8-tetrahydro-1,8-naphthyridin-2-yl)ethyl)cyclobutyl)homoserine] | 50 to 250
23 | CC(C)(C)OC(=O)N1CC(OC(=O)N[C@@H](CCO[C@H]2C[C@H](CCc3ccc4c(n3)NCCC4)C2)C(=O)O)C1 [Compound 147, N-(((1-(tert-butoxycarbonyl)azetidin-3-yl)oxy)carbonyl)-O-(trans-3-(2-(5,6,7,8-tetrahydro-1,8-naphthyridin-2-yl)ethyl)cyclobutyl)homoserine] | < 50
24 | O=C(N[C@@H](CCO[C@H]1C[C@@H](CCc2ccc3c(n2)NCCC3)C1)C(=O)O)c1ccc(F)cc1 [Compound 15, N-(4-fluorobenzoyl)-O-(cis-3-(2-(5,6,7,8-tetrahydro-1,8-naphthyridin-2-yl)ethyl)cyclobutyl)homoserine] | < 50
25 | CC(C)(C)c1nccc(N[C@@H](CCO[C@H]2C[C@H](CCc3ccc4c(n3)NCCC4)C2)C(=O)O)n1 [Example 225, N-(2-(tert-butyl)pyrimidin-4-yl)-O-(trans-3-(2-(5,6,7,8-tetrahydro-1,8-naphthyridin-2-yl)ethyl)cyclobutyl)homoserine] | 250 to 1000
26 | O=C(N[C@@H](CCO[C@H]1C[C@@H](CCc2ccc3c(n2)NCCC3)C1)C(=O)O)c1cccc(F)c1Cl [Compound 14, N-(2-chloro-3-fluorobenzoyl)-O-(cis-3-(2-(5,6,7,8-tetrahydro-1,8-naphthyridin-2-yl)ethyl)cyclobutyl)homoserine] | < 50
27 | O=C(N[C@@H](CCO[C@H]1C[C@H](CCc2ccc3c(n2)NCCC3)C1)C(=O)O)c1ccc2ncccc2c1 [Compound 54, N-(quinoline-6-carbonyl)-O-(trans-3-(2-(5,6,7,8-tetrahydro-1,8-naphthyridin-2-yl)ethyl)cyclobutyl)homoserine] | 50 to 250
28 | CC(C)(C)c1cc(N[C@@H](CCO[C@H]2C[C@H](CCc3ccc4c(n3)NCCC4)C2)C(=O)O)ncn1 [Example 229, N-(6-(tert-butyl)pyrimidin-4-yl)-O-(trans-3-(2-(5,6,7,8-tetrahydro-1,8-naphthyridin-2-yl)ethyl)cyclobutyl)homoserine] | 50 to 250

same assay, conditions: inhibition of binding of TGF-b1 LAP to human integrin αvβ6; values given in ranges; listed as 98**

Row | SMILES | IC50 [nM]
29 | CC(C)(C(=O)NC(CCO[C@H]1C[C@H](CCc2ccc3c(n2)NCCC3)C1)C(=O)O)c1ccccc1 (stereo partly drawn) [Compound 98, N-(2-methyl-2-phenylpropanoyl)-O-(trans-3-(2-(5,6,7,8-tetrahydro-1,8-naphthyridin-2-yl)ethyl)cyclobutyl)homoserine] | < 50
